How the values were obtained:
[1] = target: Serine/threonine-protein kinase MARK1 (Homo sapiens) (UniProt Q9P0L2); assay: Inhibition of MARK1 (unknown origin) at 10 uM after 120 mins P33 radiolabeled kinase activity assay
[2] = target: T1, Testis-specific serine/threonine-protein kinase 2 (Homo sapiens) (UniProt Q96PF2); assay: Inhibition of TSSK2 (unknown origin) at 10 uM after 120 mins P33 radiolabeled kinase activity assay
T1 sequence (whole entry): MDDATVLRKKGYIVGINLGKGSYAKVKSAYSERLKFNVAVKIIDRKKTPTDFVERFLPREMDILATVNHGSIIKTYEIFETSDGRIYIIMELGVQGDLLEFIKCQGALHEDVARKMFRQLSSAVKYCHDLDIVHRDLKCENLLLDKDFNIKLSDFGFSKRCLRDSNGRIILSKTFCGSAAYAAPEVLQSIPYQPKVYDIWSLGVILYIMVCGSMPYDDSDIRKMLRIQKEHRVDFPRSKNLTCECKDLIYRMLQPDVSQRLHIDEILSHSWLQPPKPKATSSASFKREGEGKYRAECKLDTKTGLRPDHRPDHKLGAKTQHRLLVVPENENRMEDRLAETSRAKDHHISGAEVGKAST

[3] = target: Serine/threonine-protein kinase SIK1 (Homo sapiens) (UniProt P57059); assay: Inhibition of SIK1 (unknown origin) at 10 uM after 120 mins P33 radiolabeled kinase activity assay
Sequence of Serine/threonine-protein kinase SIK1 (Homo sapiens) (P57059 whole entry): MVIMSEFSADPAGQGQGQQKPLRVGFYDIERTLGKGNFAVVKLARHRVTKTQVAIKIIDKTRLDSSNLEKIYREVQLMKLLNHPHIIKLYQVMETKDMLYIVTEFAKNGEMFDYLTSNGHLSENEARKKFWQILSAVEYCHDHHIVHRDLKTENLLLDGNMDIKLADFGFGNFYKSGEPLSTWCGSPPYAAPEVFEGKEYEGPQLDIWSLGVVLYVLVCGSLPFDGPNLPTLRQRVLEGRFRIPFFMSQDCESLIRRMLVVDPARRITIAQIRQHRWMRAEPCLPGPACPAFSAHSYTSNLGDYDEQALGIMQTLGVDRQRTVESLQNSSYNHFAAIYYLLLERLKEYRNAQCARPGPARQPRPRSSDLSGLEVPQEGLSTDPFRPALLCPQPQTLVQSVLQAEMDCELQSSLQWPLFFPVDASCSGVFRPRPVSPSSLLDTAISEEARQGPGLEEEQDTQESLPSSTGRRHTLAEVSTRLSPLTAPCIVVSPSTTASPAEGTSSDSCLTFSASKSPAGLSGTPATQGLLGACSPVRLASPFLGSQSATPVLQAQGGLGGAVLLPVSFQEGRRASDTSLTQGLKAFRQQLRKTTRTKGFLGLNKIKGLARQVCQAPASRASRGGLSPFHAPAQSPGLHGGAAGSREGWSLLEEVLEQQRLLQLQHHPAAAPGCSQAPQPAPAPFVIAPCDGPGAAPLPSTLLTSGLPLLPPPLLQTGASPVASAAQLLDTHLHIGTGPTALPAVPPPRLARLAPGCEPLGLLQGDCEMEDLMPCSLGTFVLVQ

[4] = target: Tyrosine-protein kinase Blk (Homo sapiens) (UniProt P51451); assay: Inhibition of BLK (unknown origin) at 10 uM after 120 mins P33 radiolabeled kinase activity assay
Sequence of Tyrosine-protein kinase Blk (Homo sapiens) (P51451 2-505 limits assumed): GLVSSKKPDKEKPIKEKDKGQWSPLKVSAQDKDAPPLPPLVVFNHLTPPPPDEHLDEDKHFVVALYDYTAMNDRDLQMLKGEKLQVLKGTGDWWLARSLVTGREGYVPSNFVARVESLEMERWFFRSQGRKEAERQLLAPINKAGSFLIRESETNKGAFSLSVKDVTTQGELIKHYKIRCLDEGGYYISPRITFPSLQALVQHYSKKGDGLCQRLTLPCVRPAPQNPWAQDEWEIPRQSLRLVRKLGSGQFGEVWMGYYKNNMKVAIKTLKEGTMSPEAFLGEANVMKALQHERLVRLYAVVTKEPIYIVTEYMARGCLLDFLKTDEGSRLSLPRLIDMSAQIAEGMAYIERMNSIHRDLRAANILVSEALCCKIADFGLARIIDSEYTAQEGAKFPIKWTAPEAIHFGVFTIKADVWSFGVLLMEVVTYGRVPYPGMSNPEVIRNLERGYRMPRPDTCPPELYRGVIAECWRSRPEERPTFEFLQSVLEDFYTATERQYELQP

[5] = target: T2, Serine/threonine-protein kinase A-Raf (Homo sapiens) (UniProt P10398); assay: Inhibition of ARAF (unknown origin) at 10 uM after 120 mins P33 radiolabeled kinase activity assay
T2 sequence (whole entry): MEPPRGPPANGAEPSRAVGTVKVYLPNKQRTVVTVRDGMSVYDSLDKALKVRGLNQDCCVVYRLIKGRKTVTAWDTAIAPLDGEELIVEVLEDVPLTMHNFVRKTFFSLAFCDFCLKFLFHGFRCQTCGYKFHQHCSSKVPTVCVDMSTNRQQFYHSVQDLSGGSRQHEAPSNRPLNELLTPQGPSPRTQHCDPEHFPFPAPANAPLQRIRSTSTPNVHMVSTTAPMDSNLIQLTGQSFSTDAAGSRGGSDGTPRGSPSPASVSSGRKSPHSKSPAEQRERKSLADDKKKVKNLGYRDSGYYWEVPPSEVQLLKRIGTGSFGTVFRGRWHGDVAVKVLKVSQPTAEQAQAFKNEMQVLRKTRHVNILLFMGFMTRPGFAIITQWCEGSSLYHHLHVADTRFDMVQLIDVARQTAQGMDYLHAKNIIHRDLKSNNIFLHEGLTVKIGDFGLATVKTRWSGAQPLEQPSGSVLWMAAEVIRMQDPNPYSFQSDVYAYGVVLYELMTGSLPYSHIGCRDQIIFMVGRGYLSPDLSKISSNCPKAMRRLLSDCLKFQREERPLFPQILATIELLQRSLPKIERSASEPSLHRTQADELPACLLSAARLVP

[6] = target: T3, Myosin-IIIb (Homo sapiens) (UniProt Q8WXR4); assay: Inhibition of MYO3b (unknown origin) at 10 uM after 120 mins P33 radiolabeled kinase activity assay
T3 sequence (whole entry): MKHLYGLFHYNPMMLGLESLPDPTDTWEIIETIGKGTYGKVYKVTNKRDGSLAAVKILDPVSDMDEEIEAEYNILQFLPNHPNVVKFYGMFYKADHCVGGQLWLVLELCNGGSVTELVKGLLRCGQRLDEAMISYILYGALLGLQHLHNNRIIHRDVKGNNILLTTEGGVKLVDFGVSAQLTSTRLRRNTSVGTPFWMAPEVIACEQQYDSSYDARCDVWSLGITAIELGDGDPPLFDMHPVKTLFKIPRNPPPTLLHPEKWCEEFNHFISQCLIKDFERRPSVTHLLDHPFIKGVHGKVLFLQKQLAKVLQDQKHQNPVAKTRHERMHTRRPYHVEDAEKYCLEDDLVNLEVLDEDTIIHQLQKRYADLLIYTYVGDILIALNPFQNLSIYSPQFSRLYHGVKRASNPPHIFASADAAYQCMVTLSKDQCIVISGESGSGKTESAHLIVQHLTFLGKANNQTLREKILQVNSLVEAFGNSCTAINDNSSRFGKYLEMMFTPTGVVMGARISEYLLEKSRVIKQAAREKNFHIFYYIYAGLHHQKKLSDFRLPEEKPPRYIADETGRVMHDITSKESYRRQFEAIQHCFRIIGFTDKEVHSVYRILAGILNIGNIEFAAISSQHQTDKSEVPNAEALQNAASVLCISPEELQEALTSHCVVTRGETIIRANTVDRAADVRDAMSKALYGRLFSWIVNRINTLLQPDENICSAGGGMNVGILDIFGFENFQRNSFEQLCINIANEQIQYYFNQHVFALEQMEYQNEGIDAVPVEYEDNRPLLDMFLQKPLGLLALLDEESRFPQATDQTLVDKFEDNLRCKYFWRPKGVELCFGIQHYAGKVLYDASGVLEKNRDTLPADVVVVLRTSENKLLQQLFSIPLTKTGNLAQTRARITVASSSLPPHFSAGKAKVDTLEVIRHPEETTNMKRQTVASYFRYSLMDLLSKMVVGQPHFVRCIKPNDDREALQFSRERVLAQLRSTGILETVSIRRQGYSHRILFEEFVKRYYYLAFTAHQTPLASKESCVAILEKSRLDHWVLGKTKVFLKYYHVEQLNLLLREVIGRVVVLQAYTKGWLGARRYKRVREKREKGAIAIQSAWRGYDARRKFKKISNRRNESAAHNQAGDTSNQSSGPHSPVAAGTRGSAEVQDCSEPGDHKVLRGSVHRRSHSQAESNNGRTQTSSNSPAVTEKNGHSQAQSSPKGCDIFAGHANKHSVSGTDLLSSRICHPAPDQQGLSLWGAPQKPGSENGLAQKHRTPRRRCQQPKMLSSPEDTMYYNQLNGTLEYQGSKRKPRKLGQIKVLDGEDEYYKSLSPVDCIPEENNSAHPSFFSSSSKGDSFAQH

[7] = target: Receptor tyrosine-protein kinase erbB-2 (Homo sapiens) (UniProt P04626); assay: Inhibition of ERBB2 (unknown origin) at 10 uM after 120 mins P33 radiolabeled kinase activity assay
Sequence of Receptor tyrosine-protein kinase erbB-2 (Homo sapiens) (P04626 whole entry): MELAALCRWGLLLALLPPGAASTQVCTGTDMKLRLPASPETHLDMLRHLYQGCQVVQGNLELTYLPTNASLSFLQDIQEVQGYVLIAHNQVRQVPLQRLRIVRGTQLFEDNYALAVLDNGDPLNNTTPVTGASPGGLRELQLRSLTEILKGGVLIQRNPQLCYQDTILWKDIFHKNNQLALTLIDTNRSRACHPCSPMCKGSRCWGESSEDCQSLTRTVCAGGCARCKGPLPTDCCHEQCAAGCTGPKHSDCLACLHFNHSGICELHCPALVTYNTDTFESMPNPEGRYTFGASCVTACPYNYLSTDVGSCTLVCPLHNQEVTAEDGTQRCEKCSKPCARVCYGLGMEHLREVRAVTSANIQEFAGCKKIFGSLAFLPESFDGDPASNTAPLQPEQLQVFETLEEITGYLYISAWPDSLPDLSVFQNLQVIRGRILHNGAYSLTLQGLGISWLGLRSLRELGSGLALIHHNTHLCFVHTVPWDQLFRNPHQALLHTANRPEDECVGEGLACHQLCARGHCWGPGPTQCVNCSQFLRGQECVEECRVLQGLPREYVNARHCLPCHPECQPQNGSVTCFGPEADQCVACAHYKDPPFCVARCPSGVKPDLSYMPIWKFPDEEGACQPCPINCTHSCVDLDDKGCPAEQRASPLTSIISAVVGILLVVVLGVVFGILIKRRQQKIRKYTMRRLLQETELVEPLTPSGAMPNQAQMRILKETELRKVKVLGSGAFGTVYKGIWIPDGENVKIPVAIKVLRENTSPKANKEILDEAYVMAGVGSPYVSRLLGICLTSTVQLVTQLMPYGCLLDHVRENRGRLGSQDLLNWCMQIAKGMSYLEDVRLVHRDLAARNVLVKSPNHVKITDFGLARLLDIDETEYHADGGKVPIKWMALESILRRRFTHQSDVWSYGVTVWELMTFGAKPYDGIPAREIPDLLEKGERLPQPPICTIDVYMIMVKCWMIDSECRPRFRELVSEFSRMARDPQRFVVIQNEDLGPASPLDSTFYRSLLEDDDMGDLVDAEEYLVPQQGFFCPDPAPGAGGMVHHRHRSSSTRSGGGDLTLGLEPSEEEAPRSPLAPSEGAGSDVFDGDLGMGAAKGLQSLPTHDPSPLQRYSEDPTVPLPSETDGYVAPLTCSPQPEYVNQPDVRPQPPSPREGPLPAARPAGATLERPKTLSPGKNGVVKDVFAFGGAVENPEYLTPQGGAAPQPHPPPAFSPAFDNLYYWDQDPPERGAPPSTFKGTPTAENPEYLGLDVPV

[8] = target: Serine/threonine-protein kinase MRCK alpha (Homo sapiens) (UniProt Q5VT25); assay: Inhibition of MRCKalpha (unknown origin) at 10 uM after 120 mins P33 radiolabeled kinase activity assay
[9] = target: Tyrosine-protein kinase Lyn (Homo sapiens) (UniProt P07948); assay: Inhibition of LYN (unknown origin) at 10 uM after 120 mins P33 radiolabeled kinase activity assay
Sequence of Tyrosine-protein kinase Lyn (Homo sapiens) (P07948 2-512 limits assumed): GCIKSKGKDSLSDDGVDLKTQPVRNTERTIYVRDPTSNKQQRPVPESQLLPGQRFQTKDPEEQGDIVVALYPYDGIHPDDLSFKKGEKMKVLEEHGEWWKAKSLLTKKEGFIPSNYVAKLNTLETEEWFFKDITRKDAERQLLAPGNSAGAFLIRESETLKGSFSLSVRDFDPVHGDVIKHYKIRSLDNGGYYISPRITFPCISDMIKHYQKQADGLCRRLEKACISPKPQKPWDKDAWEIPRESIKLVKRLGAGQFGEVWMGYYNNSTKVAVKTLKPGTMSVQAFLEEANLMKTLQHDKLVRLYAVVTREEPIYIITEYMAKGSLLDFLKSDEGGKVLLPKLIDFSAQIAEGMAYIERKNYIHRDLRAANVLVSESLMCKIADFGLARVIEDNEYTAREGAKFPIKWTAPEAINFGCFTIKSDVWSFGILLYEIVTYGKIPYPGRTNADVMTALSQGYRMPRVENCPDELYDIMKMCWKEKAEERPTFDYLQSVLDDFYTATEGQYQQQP

[10] = target: Serine/threonine-protein kinase 33 (Homo sapiens) (UniProt Q9BYT3); assay: Inhibition of STK33 (unknown origin) at 10 uM after 120 mins P33 radiolabeled kinase activity assay
Sequence of Serine/threonine-protein kinase 33 (Homo sapiens) (Q9BYT3 whole entry, looked up): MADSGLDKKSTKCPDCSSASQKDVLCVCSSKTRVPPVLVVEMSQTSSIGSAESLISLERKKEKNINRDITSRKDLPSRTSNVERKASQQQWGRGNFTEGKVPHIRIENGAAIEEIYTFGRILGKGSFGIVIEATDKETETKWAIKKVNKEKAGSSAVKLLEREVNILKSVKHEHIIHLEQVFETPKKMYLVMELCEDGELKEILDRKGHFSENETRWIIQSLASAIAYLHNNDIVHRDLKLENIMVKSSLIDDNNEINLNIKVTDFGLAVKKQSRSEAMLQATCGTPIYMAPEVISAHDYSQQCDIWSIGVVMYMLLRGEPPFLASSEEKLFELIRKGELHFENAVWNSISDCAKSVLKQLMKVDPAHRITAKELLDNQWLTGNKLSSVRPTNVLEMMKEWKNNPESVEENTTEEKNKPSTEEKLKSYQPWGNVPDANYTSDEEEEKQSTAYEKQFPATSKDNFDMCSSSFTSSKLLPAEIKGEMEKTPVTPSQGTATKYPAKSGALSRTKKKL

Sequence of Serine/threonine-protein kinase MARK1 (Homo sapiens) (Q9P0L2 whole entry, looked up): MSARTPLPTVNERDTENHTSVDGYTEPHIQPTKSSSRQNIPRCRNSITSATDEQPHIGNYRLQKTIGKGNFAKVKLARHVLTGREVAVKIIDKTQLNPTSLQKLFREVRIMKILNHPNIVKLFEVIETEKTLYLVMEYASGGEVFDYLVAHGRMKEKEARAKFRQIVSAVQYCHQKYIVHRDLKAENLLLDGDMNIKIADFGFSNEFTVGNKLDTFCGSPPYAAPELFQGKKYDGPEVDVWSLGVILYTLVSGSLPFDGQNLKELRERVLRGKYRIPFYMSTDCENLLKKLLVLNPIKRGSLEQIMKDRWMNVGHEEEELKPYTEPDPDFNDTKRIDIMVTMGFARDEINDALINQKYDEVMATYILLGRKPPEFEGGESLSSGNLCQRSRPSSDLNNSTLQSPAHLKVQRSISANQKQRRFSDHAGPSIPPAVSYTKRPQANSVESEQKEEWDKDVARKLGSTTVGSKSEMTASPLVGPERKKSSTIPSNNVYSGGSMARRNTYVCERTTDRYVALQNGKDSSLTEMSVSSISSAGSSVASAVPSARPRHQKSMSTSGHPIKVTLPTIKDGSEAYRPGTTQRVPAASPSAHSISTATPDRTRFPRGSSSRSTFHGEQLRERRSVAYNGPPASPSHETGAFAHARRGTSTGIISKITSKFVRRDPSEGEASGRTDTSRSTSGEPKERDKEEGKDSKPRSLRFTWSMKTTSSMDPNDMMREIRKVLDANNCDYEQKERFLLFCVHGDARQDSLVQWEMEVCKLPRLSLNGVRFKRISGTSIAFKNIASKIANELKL

Structure (SMILES) | inhibition [1] [%] | inhibition [2] [%] | inhibition [3] [%] | inhibition [4] [%] | inhibition [5] [%] | inhibition [6] [%] | inhibition [7] [%] | inhibition [8] [%] | inhibition [9] [%] | inhibition [10] [%]
COCCNC(=O)c1ccc2c(c1)nc(-c1cnc(-c3ccc(Cl)cc3)[nH]1)n2CCOC | 3.28 | 3.82 | 34.4 | 34.2 | 75.8 | 2.38 | 2.53 | 8.76 | 61.6 | 10.6
CS(=O)(=O)c1cccc(Nc2nccc(-c3sc(N4CCOCC4)nc3-c3cccc(NS(=O)(=O)c4c(F)cccc4F)c3)n2)c1 | 10.3 | 1.83 | 101 | 99.4 | 97.7 | 71.7 | 95.3 | 13 | 100 | 29.3
CC(C)(C)c1cc(NC(=O)Nc2ccc(Oc3ccncc3)cc2)no1 | 4.99 | 1.87 | 22.6 | 65.8 | 96.2 | 92.5 | -7.24 | 30.5 | 98.2 | 36.7
